Reference: paper PMC4863944, “Inhibition of Oncogenic Transcription Factor REL by the Natural Product Derivative Calafianin Monomer 101 Induces Proliferation Arrest and Apoptosis in Human B-Lymphoma Cell Lines” (Molecules, 2015)

Key:
[1] = molecular target: T1, p65 (RelA) (Homo sapiens, UniProt Q04206); test: EMSA of extracts from CM101-treated transfected […] cells; C38S mutant less inhibited; western blot of covalently modified high molecular weight forms; format: cell-based
T1 construct: FLAG-tagged human p65 expressed in 293 cells
T1 sequence (Q04206 whole entry): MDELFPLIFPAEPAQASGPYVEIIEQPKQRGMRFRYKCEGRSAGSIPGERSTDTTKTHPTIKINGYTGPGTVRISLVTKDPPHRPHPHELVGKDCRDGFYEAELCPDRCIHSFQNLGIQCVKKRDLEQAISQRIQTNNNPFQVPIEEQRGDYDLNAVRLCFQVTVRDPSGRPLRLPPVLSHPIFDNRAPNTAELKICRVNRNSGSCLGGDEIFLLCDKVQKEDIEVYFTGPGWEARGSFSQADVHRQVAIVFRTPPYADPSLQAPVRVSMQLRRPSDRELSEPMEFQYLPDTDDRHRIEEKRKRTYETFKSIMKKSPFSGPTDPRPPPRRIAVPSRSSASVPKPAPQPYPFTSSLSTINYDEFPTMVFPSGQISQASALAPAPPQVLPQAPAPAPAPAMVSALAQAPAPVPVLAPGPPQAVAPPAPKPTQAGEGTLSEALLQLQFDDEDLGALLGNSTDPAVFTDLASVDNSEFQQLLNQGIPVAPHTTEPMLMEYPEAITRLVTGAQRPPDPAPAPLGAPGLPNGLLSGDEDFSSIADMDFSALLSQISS

[2] = molecular target: T2, REL (human c-Rel) (Homo sapiens, UniProt Q04864); test: EMSA of extracts from CM101-treated transfected […] cells; C27S mutant less inhibited; western blot of covalently modified high molecular weight forms; format: cell-based
T2 construct: FLAG-tagged human REL expressed in 293 cells
T2 sequence (Q04864 2-619): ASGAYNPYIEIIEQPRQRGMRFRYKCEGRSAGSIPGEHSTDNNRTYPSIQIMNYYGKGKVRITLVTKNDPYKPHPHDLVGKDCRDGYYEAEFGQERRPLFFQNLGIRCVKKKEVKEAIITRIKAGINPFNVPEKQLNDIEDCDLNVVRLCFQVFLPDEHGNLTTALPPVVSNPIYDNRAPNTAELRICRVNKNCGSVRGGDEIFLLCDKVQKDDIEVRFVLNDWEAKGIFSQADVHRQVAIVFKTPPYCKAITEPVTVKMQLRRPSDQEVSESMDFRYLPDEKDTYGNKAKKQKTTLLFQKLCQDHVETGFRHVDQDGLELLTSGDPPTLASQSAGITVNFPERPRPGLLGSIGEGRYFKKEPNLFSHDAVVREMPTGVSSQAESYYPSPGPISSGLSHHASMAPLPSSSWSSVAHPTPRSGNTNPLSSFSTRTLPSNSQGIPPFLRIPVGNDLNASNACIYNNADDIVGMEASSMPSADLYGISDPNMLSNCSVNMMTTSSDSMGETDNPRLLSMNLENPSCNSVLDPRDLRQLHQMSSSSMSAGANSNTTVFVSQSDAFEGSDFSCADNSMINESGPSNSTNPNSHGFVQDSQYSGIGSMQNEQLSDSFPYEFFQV

CCOC(=O)C1=NO[C@@]2(C=C(Br)C(=O)[C@H]3O[C@H]32)C1 (mixture of isomers) [CM101]
IC50 [1]: ~10 µM | IC50 [2]: ~10 µM
